For assay [1], the target named is T1, GNRR-3 (Caenorhabditis elegans, UniProt Q23265).
T1 sequence (Q23265 1-395): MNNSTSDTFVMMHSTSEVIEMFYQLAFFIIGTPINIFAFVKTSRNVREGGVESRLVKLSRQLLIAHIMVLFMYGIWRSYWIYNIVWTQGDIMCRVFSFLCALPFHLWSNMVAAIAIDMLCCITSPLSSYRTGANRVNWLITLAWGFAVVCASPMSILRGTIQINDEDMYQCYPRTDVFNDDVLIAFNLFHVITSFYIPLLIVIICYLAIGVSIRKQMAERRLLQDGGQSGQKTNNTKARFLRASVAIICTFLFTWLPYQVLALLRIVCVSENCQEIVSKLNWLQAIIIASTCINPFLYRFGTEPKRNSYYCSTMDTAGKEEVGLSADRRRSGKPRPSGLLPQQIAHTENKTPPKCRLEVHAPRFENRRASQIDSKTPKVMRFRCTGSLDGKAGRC
Briefly: Receptor activation assay (aequorin calcium mobilization), GNRR-3 co-expressed with promiscuous Gα16 in CHO cells. The format is cell-based, C. elegans. The following applies: for EC50: CHO cells stably expressing apo-aequorin and Gα16, transiently transfected receptor, aequorin luminescence relative to total calcium response, mean EC50, N = 5–7 replicates, 95% confidence interval given; for Activation of GNRR-3 (in words): CHO/apo-aequorin/Gα16 calcium mobilization assay, peptides initially tested at 10 µM. From the text:
(§1) We tested a C. elegans peptide library for the ability to activate these seven receptors using an in vitro calcium mobilization assay. We cloned and transiently expressed each of the seven GNRRs in Chinese hamster ovary (CHO) cells stably expressing apo-aequorin and the human promiscuous Gα16 protein. These cells were challenged with a synthetic library of over 340 C. elegans peptides of the RFamide (FLP) and neuropeptide-like protein (NLP) families. […] Peptides encoded by nlp-2 and nlp-23 potently activated GNRR-3 with EC50 values in the nanomolar range. By contrast, NLP-22 activated GNRR-3 with far lower potency (EC50 value > 6 µM), which may be physiologically irrelevant. GNRR-6 was potently activated by NLP-22 and NLP-23 peptides. Peptides encoded by nlp-2 also activated GNRR-6, although with a higher EC50 value than NLP-22 and NLP-23. […] In short, we identified the neuropeptides encoded by nlp-2, nlp-22 and nlp-23 as bioactive ligands of the GnRH/AKH-like receptors GNRR-3 and GNRR-6 in vitro.
(§2) Figure 2 NLP-2, NLP-22, and NLP-23 peptides activate GNRR-3 and GNRR-6 in vitro. Dose-response curves for GNRR-3 (A) and GNRR-6 (B) co-expressed in CHO cells with a promiscuous Gα16 protein are shown as relative (%) to the highest value (100% activation) after normalization to the total calcium response. Each data point represents the mean ± SEM of N = 5–7 replicates for each peptide. (C) Amino acid (AA) sequences of RPamide neuropeptides activating GNRR-3 and GNRR-6 with their respective mean EC50 values and 95% Confidence intervals.
(§3) Peptides were custom-synthesized by GL Biochem Ltd. All peptides were initially tested at a concentration of 10 µM. Receptor activating peptides were purified using reverse-phase HPLC and verified using MALDI TOF mass spectrometry. Peptide concentrations were determined with a bicinchoninic acid (BCA) assay. For receptor activation assays, peptides were first lyophilized and then diluted to the desired concentrations.
(§4) Chinese hamster ovary (CHO) cells stably expressing apo-aequorin and the promiscuous Gα16 subunit were used for receptor deorphanization (ES-000-A24, Perkin-Elmer). To characterize downstream signaling, CHO cells stably expressing apo-aequorin but lacking the promiscuous Gα16 protein were used (ES-000-A12, Perkin-Elmer). Cells were cultured in Dulbecco’s Modified Eagle’s Medium Nutrient Mixture Ham F-12 (DMEM/F-12, Invitrogen) to which 1% penicillin/streptomycin, 2.5 µg/ml amphotericin B, and 10% fetal bovine serum (Sigma-Aldrich) were added. Growth medium was supplemented with 250 µg/ml zeocin or 5 µg/ml puromycin, which serves as a selection reagent for CHO cells with or without the promiscuous Gα16 subunit, respectively. Cells were grown as a monolayer at 37 °C, 5% CO2 and high humidity. For transfection, 3.75 ml Opti-MEM I (Invitrogen), 7.5 µg pcDNA3.1 construct and 18.75 µl Plus reagent (Invitrogen) were gently mixed in a polystyrene tube. After incubation for 5 minutes at room temperature, 45 µl Lipofectamine LTX (Invitrogen) was added and gently mixed. The transfection reagent was incubated for 30 min at room temperature. Growth medium was removed leaving 3 ml and the transfection reagents were added dropwise to the cells. Transfected cells were grown overnight and 20 ml growth medium was added the next day. Cells were grown one more day before the assay at 28 °C.
(§5) Two days after transfection, CHO cells were detached from the surface of the culture flask using phosphate buffered saline with 0.2% EDTA and collected in 10 ml colorless DMEM/F-12 (11039, Gibco). Cell viability was measured using a NucleoCounter NC-100 (Chemometic). Cells were pelleted for 4 min at 800 rpm at room temperature and resuspended to a concentration of 5 × 10^6 cells/ml in colorless DMEM/F12 with 0.1% bovine serum albumin (BSA). 5 µM coelenterazine H (Invitrogen) was added to the cell suspension. […]
(Calcium flux is commonly read through the fluorescence of an indicator in the cells.)

For assay [2], the target named is T2, GNRR-6 (Caenorhabditis elegans, UniProt Q19399).
T2 sequence (Q19399 1-400): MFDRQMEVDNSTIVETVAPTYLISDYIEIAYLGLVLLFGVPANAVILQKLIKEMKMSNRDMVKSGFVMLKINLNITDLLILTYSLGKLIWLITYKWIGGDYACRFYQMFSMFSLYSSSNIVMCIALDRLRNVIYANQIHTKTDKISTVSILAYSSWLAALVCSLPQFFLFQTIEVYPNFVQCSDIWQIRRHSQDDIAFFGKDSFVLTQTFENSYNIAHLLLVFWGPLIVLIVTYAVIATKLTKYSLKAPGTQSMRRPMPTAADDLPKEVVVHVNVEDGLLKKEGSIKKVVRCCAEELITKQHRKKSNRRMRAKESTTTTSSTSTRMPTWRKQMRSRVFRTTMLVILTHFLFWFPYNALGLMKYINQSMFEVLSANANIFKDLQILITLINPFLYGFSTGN
Briefly: Receptor activation assay (aequorin calcium mobilization), GNRR-6 co-expressed with promiscuous Gα16 in CHO cells. The class given is cell-based, C. elegans. The settings on record: for EC50: CHO cells stably expressing apo-aequorin and Gα16, transiently transfected receptor, aequorin luminescence relative to total calcium response, mean EC50, N = 5–7 replicates, 95% confidence interval given; for Activation of GNRR-6 (in words): CHO/apo-aequorin/Gα16 calcium mobilization assay, peptides initially tested at 10 µM.
Excerpt: as §1, §2, §3, §4, §5

Values joined by “and” are separate entries in the source; they are usually repeats but may differ in a detail not shown here. Equal entries are not always repeated. Where a SMILES comes first, the peptide text is derived from it.

As a reminder, the EC50 is the concentration at which the effect is half-maximal. In the case of `CC[C@H](C)[C@H](NC(=O)[C@@H](N)CO)C(=O)N[C@@H](C)C(=O)N[C@@H](CC(C)C)C(=O)NCC(=O)N[C@@H](CCCNC(=N)N)C(=O)N[C@@H](CO)C(=O)NCC(=O)N[C@@H](Cc1ccccc1)C(=O)N[C@@H](CCCNC(=N)N)C(=O)N1CCC[C@H]1C(N)=O` [NLP-2-1] (H-SIALGRSGFRP-NH2; N-terminus assumed), in assay [1], the 50% effective concentration (EC50) turned out to be 81000 nM and the “Activation of GNRR-3 (in words)” value is listed as “activated these receptors in a dose-dependent manner”. In assay [2], the EC50 was 135 nM and the “Activation of GNRR-6 (in words)” value is “activated these receptors in a dose-dependent manner”.

With `CSCC[C@H](NC(=O)[C@H](C)NC(=O)[C@H](CCSC)NC(=O)[C@@H](N)CO)C(=O)NCC(=O)N[C@@H](CCCNC(=N)N)C(=O)N[C@@H](CC(C)C)C(=O)NCC(=O)N[C@@H](CC(C)C)C(=O)N[C@@H](CCCNC(=N)N)C(=O)N1CCC[C@H]1C(N)=O` [NLP-2-2] (H-SMAMGRLGLRP-NH2; N-terminus assumed), in assay [1], the concentration giving a half-maximal response (EC50) was found to be 558 nM and the “Activation of GNRR-3 (in words)” value is “activated these receptors in a dose-dependent manner”. In assay [2], the EC50 is 542 nM and the “Activation of GNRR-6 (in words)” value was “activated these receptors in a dose-dependent manner”.

As for `CSCC[C@H](NC(=O)[C@@H](N)CO)C(=O)N[C@@H](C)C(=O)N[C@@H](Cc1ccc(O)cc1)C(=O)NCC(=O)N[C@@H](CCCNC(=N)N)C(=O)N[C@@H](CCC(N)=O)C(=O)NCC(=O)N[C@@H](Cc1ccccc1)C(=O)N[C@@H](CCCNC(=N)N)C(=O)N1CCC[C@H]1C(N)=O` [NLP-2-3] (H-SMAYGRQGFRP-NH2; N-terminus assumed), in assay [1], the EC50 is 3300 nM and the “Activation of GNRR-3 (in words)” value is recorded as “activated these receptors in a dose-dependent manner”. Further, in assay [2], the concentration giving a half-maximal response (EC50) amounted to 169 nM and the “Activation of GNRR-6 (in words)” value is on record as “activated these receptors in a dose-dependent manner”.

In the case of `CC[C@H](C)[C@H](NC(=O)[C@H](C)NC(=O)[C@@H](NC(=O)[C@@H](N)CO)[C@@H](C)CC)C(=O)NCC(=O)N[C@@H](CCCNC(=N)N)C(=O)N[C@@H](C)C(=O)NCC(=O)N[C@@H](Cc1ccccc1)C(=O)N[C@@H](CCCNC(=N)N)C(=O)N1CCC[C@H]1C(N)=O` [NLP-22] (H-SIAIGRAGFRP-NH2; N-terminus assumed), in assay [1], the EC50 is > 6000 nM and 6700 nM; the “Activation of GNRR-3 (in words)” value was “activated these receptors in a dose-dependent manner”. In assay [2], the EC50 was determined as 4.1 nM and the “Activation of GNRR-6 (in words)” value was “activated these receptors in a dose-dependent manner”.

Take `CC[C@H](C)[C@H](NC(=O)[C@H](C)NC(=O)[C@H](CCSC)NC(=O)[C@@H](N)CO)C(=O)NCC(=O)N[C@@H](CCCNC(=N)N)C(=O)N[C@@H](C)C(=O)NCC(=O)N[C@@H](CCSC)C(=O)N[C@@H](CCCNC(=N)N)C(=O)N1CCC[C@H]1C(N)=O` [NLP-23-2] (H-SMAIGRAGMRP-NH2; N-terminus assumed): in assay [1], the concentration giving a half-maximal response (EC50) came out at 158 nM and the “Activation of GNRR-3 (in words)” value was “activated these receptors in a dose-dependent manner”. Moreover, in assay [2], the EC50 was determined as 6 nM and the “Activation of GNRR-6 (in words)” value is given as “activated these receptors in a dose-dependent manner”.

In the case of “LYISRQGFRPA [NLP-23-1, NLP-23 derived peptide … lacking the C-terminal glycine amidation target]”, the “Activation of GNRR-3 (in words)” value in assay [1] was “did not activate”. Also, in assay [2], the “Activation of GNRR-6 (in words)” value is listed as “did not activate”.
